# From patent US20260184710A1, “CASITAS B-LINEAGE LYMPHOMA PROTOONCOGENE B (CBL-B) DEGRADING COMPOUNDS AND ASSOCIATED METHODS OF USE” (Arvinas Operations, Inc., priority 2022, published 2026)
# Key:
# Cbl-b [1] = target: T1, Cbl-b (Homo sapiens, UniProt Q13191); assay: Cbl-b Degradation Method B (Nano-Glo HiBiT lytic detection); assay type: cell-based; details: Cbl-b-HiBit KI Jurkat Cells, incubated at least 6-24 hours; for DC50: half maximal degradation, read-out: Cbl-b Degredation Method B IC50; for Dmax: maximum degradation observed, read-out: Cbl-b Degredation Method B Dmax (%)
# T1 construct: Cbl-b-HiBit KI Jurkat Cells were purchased from Promega; host or cells: Cbl-b-HiBiT knock-in Jurkat cells
# T1 sequence (Q13191 whole entry): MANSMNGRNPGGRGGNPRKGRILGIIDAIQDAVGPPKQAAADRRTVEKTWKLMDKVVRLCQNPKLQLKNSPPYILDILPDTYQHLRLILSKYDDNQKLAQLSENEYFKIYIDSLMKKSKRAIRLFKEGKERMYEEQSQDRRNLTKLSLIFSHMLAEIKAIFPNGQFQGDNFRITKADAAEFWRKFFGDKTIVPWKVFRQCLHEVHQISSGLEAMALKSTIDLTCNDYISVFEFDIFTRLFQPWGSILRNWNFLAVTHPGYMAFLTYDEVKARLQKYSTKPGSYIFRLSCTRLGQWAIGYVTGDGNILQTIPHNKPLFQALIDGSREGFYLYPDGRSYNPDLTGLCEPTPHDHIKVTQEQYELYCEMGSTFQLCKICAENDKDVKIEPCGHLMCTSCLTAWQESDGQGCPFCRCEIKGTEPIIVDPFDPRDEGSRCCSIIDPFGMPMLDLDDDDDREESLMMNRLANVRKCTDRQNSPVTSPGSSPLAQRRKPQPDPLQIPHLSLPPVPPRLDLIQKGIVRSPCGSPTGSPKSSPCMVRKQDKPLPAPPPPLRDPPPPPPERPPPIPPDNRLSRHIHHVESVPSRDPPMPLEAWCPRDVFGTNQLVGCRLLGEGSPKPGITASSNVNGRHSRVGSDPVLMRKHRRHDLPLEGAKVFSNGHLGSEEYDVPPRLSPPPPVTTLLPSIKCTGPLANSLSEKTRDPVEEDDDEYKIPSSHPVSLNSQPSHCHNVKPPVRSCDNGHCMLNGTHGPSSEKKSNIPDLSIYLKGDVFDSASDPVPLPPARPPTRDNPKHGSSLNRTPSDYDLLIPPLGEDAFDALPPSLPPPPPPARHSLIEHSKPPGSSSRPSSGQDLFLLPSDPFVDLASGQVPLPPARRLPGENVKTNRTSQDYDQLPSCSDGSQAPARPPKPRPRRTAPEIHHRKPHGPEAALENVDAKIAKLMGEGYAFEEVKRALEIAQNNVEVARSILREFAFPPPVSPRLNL
# Procedure, shortened: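 An 11-point, 3-fold compound dilution was applied for 6-24 hours to Jurkat cells carrying HiBiT-tagged endogenous Cbl-b. Lytic HiBiT luminescence quantified residual protein. Outputs are DC50 and Dmax relative to DMSO control.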
# Cbl-b [2] = target: T1, Cbl-b; assay: Cbl-b Degradation Method A (FACS, anti-Cbl-b antibody staining); assay type: cell-based; details: Cbl-b-HiBit KI Jurkat Cells, incubated at least 20 hours; for DC50: half maximal degradation, read-out: Cbl-b Degredation Method A IC50; for Dmax: Jurkat, maximum degradation observed, read-out: Cbl-b Degredation Method A Dmax (%)
# Procedure, shortened: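 Readout is flow cytometry of fixed, permeabilized cells immunostained for Cbl-b (primary 1:200, AF488 secondary). Cells were Cbl-b-HiBit knock-in Jurkat, exposed to compound ≥20 h at 37 °C; half-maximal degradation concentration (DC50) and maximal degradation (Dmax) calculated relative to control.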
SMILES,DC50 (Cbl-b [1]),Dmax (Cbl-b [1]),DC50 (Cbl-b [2]),Dmax (Cbl-b [2])
"CC1c2nc(N3CCC(O[C@H]4CC[C@H](CN5CCC6(CCN(c7cc8c(c(C(F)(F)F)c7)CN(c7cccc([C@]9(Cc%10nncn%10C)C[C@@H](C#N)C9)c7)C8=O)C6)C5)CC4)CC3)ccc2C(=O)N1C1CCC(=O)NC1=O (stereo partly shown) [Example 179, (1r,3r)-3-[(4-methyl-4H-1,2,4-triazol-3-yl)methyl]-3-{3-[1-oxo-6-(7-{[(1r,4r)-4-({1-[6-(2,6-dioxopiperidin-3-yl)-7-methyl-5-oxo-5H,6H,7H-pyrrolo[3,4-b]pyridin-2-yl]piperidin-4-yl}oxy)cyclohexyl]methyl}-2,7-diazaspiro[4.4]nonan-2-yl)-4-(trifluoromethyl)-2,3-dihydro-1H-isoindol-2-yl]phenyl}cyclobutane-1-carbonitrile]",< 5 nM,35 to 70%,5 to 50 nM,35 to 70%
"CC1c2nc(N3CCC(O[C@H]4CC[C@H](CN5C[C@H]6C[C@@H]5CN6c5cc6c(c(C(F)(F)F)c5)CN(c5cccc([C@]7(Cc8nncn8C)C[C@@H](C#N)C7)c5)C6=O)CC4)CC3)ccc2C(=O)N1C1CCC(=O)NC1=O (stereo partly drawn) [Example 181, (1r,3r)-3-[(4-methyl-4H-1,2,4-triazol-3-yl)methyl]-3-(3-{1-oxo-6-[(1R,4R)-5-{[(1r,4r)-4-({1-[6-(2,6-dioxopiperidin-3-yl)-7-methyl-5-oxo-5H,6H,7H-pyrrolo[3,4-b]pyridin-2-yl]piperidin-4-yl}oxy)cyclohexyl]methyl}-2,5-diazabicyclo[2.2.1]heptan-2-yl]-4-(trifluoromethyl)-2,3-dihydro-1H-isoindol-2-yl}phenyl)cyclobutane-1-carbonitrile]",< 5 nM,35 to 70%,< 5 nM,35 to 70%
"COc1c(N2CCC(F)(CN3CCC4(CC3)CN(c3cc5c(c(C(F)(F)F)c3)CN(c3cccc(C6(Cc7nncn7C)COC6)c3)C5=O)C4)CC2)ccc2c1CN(C1CCC(=O)NC1=O)C2=O (stereo not shown) [Example 185, 3-{5-[4-fluoro-4-({2-[2-(3-{3-[(4-methyl-4H-1,2,4-triazol-3-yl)methyl]oxetan-3-yl}phenyl)-3-oxo-7-(trifluoromethyl)-2,3-dihydro-1H-isoindol-5-yl]-2,7-diazaspiro[3.5]nonan-7-yl}methyl)piperidin-1-yl]-4-methoxy-1-oxo-2,3-dihydro-1H-isoindol-2-yl}piperidine-2,6-dione]",5 to 50 nM,35 to 70%,5 to 50 nM,35 to 70%
"COc1c(N2CCC(O[C@H]3CC[C@H](CN4CCC5(CC4)CN(c4cc6c(c(C(F)(F)F)c4)CN(c4cccc([C@]7(Cc8nncn8C)C[C@@H](C#N)C7)c4)C6=O)C5)CC3)CC2)ccc2c1CN(C1CCC(=O)NC1=O)C2=O (stereo partly shown) [Example 186, (1r,3r)-3-[(4-methyl-4H-1,2,4-triazol-3-yl)methyl]-3-{3-[1-oxo-6-(7-{[(1r,4r)-4-({1-[2-(2,6-dioxopiperidin-3-yl)-4-methoxy-1-oxo-2,3-dihydro-1H-isoindol-5-yl]piperidin-4-yl}oxy)cyclohexyl]methyl}-2,7-diazaspiro[3.5]nonan-2-yl)-4-(trifluoromethyl)-2,3-dihydro-1H-isoindol-2-yl]phenyl}cyclobutane-1-carbonitrile]",< 5 nM,35 to 70%,5 to 50 nM,35 to 70%
"Cc1cc(N2CCC(O[C@H]3CC[C@H](CN4CCC5(CCN(c6cc7c(c(C(F)(F)F)c6)CN(c6cccc([C@]8(Cc9nncn9C)C[C@@H](C#N)C8)c6)C7=O)C5)C4)CC3)CC2)c(F)c2c1C(=O)N(C1CCC(=O)NC1=O)C2 (stereo partly shown) [Example 188, (1r,3r)-3-[(4-methyl-4H-1,2,4-triazol-3-yl)methyl]-3-{3-[1-oxo-6-(7-{[(1r,4r)-4-({1-[2-(2,6-dioxopiperidin-3-yl)-4-fluoro-7-methyl-1-oxo-2,3-dihydro-1H-isoindol-5-yl]piperidin-4-yl}oxy)cyclohexyl]methyl}-2,7-diazaspiro[4.4]nonan-2-yl)-4-(trifluoromethyl)-2,3-dihydro-1H-isoindol-2-yl]phenyl}cyclobutane-1-carbonitrile]",< 5 nM,35 to 70%,,35 to 70%
"COc1c(N2CCC(O[C@H]3CC[C@H](CN4CCN(Cc5cc6c(c(C(F)(F)F)c5)CN(c5cccc(C7(Cc8nncn8C)COC7)c5)C6=O)CC4)CC3)CC2)ccc2c1CN(C1CCC(=O)NC1=O)C2=O (stereo partly shown) [Example 193, 3-[4-methoxy-1-oxo-5-(4-{[(1r,4r)-4-[(4-{[2-(3-{3-[(4-methyl-4H-1,2,4-triazol-3-yl)methyl]oxetan-3-yl}phenyl)-3-oxo-7-(trifluoromethyl)-2,3-dihydro-1H-isoindol-5-yl]methyl}piperazin-1-yl)methyl]cyclohexyl]oxy}piperidin-1-yl)-2,3-dihydro-1H-isoindol-2-yl]piperidine-2,6-dione]",< 5 nM,35 to 70%,< 5 nM,> 70%
"C[C@H]1CN(C[C@H]2CC[C@@H](OC3CCN(c4ccc5c(c4F)CN(C4CCC(=O)NC4=O)C5=O)CC3)CC2)CCN1Cc1cc2c(c(C(F)(F)F)c1)CN(c1cccc(C3(Cc4nncn4C)COC3)c1)C2=O (stereo partly drawn) [Example 194, 3-[4-fluoro-1-oxo-5-(4-{[(1r,4r)-4-{[(3S)-3-methyl-4-{[2-(3-{3-[(4-methyl-4H-1,2,4-triazol-3-yl)methyl]oxetan-3-yl}phenyl)-3-oxo-7-(trifluoromethyl)-2,3-dihydro-1H-isoindol-5-yl]methyl}piperazin-1-yl]methyl}cyclohexyl]oxy}piperidin-1-yl)-2,3-dihydro-1H-isoindol-2-yl]piperidine-2,6-dione]",< 5 nM,35 to 70%,< 5 nM,> 70%
"C[C@@H]1CN(C[C@H]2CC[C@H](OC3CCN(c4ccc5c(c4F)CN(C4CCC(=O)NC4=O)C5=O)CC3)CC2)CCN1Cc1cc2c(c(C(F)(F)F)c1)CN(c1cccc(C3(Cc4nncn4C)COC3)c1)C2=O (stereo partly drawn) [Example 195, 3-[4-fluoro-1-oxo-5-(4-{[(1r,4r)-4-{[(3R)-3-methyl-4-{[2-(3-{3-[(4-methyl-4H-1,2,4-triazol-3-yl)methyl]oxetan-3-yl}phenyl)-3-oxo-7-(trifluoromethyl)-2,3-dihydro-1H-isoindol-5-yl]methyl}piperazin-1-yl]methyl}cyclohexyl]oxy}piperidin-1-yl)-2,3-dihydro-1H-isoindol-2-yl]piperidine-2,6-dione]",< 5 nM,35 to 70%,< 5 nM,> 70%
"CC1CN(Cc2cc3c(c(C(F)(F)F)c2)CN(c2cccc(C4(Cc5nncn5C)COC4)c2)C3=O)CCN1C[C@H]1CC[C@H](OC2CCN(c3ccc4c(c3F)CN(C3CCC(=O)NC3=O)C4=O)CC2)CC1 (stereo partly shown) [Example 196, 3-[4-fluoro-1-oxo-5-(4-{[(1r,4r)-4-[(2-methyl-4-{[2-(3-{3-[(4-methyl-4H-1,2,4-triazol-3-yl)methyl]oxetan-3-yl}phenyl)-3-oxo-7-(trifluoromethyl)-2,3-dihydro-1H-isoindol-5-yl]methyl}piperazin-1-yl)methyl]cyclohexyl]oxy}piperidin-1-yl)-2,3-dihydro-1H-isoindol-2-yl]piperidine-2,6-dione]",< 5 nM,35 to 70%,< 5 nM,> 70%
"COc1c(N2CCC(O[C@H]3CC[C@H](CN4CCN(Cc5cc6c(c(C(F)(F)F)c5)CN(c5cccc([C@]7(Cc8nncn8C)C[C@@H](C#N)C7)c5)C6=O)CC4)CC3)CC2)ccc2c1CN(C1CCC(=O)NC1=O)C2=O (stereo partly shown) [Example 199, (1r,3r)-3-[(4-methyl-4H-1,2,4-triazol-3-yl)methyl]-3-(3-{1-oxo-6-[(4-{[(1r,4r)-4-({1-[2-(2,6-dioxopiperidin-3-yl)-4-methoxy-1-oxo-2,3-dihydro-1H-isoindol-5-yl]piperidin-4-yl}oxy)cyclohexyl]methyl}piperazin-1-yl)methyl]-4-(trifluoromethyl)-2,3-dihydro-1H-isoindol-2-yl}phenyl)cyclobutane-1-carbonitrile]",< 5 nM,35 to 70%,< 5 nM,> 70%
"CC1c2nc(N3CCC(O[C@H]4CC[C@H](CN5CCN(Cc6cc7c(c(C(F)(F)F)c6)CN(c6cccc([C@]8(Cc9nncn9C)C[C@@H](C#N)C8)c6)C7=O)CC5)CC4)CC3)ccc2C(=O)N1C1CCC(=O)NC1=O (stereo partly shown) [Example 203, (1r,3r)-3-[(4-methyl-4H-1,2,4-triazol-3-yl)methyl]-3-(3-{1-oxo-6-[(4-{[(1r,4r)-4-({1-[6-(2,6-dioxopiperidin-3-yl)-7-methyl-5-oxo-5H,6H,7H-pyrrolo[3,4-b]pyridin-2-yl]piperidin-4-yl}oxy)cyclohexyl]methyl}piperazin-1-yl)methyl]-4-(trifluoromethyl)-2,3-dihydro-1H-isoindol-2-yl}phenyl)cyclobutane-1-carbonitrile]",< 5 nM,35 to 70%,< 5 nM,35 to 70%
